# Test results taken from US20250127787A1, “METHODS FOR TREATING PERIPHERAL NEUROPATHY” (University of Pittsburgh - Of the Commonwealth System of …, priority 2021, published 2025).
# “Also recorded” adds a separate entry of the source.
# How the values were obtained:
# PGP 9.5 = PGP 9.5 immunocytochemistry of CYP-CIPN rat epidermis (nerve terminals, edema); assay type: in vivo; conditions: fluorescent images, oral 8-AG
# Protocol: Animals. This study employed female Harlan Sprague Dawley (HSD) rats (3-4 mo; Envigo, Indianapolis, IN) and were divided into the following groups: 1) Control, 2) Cyclophosphamide (CYP, 75 mg/kg i.p. in saline vehicle; administered on days 0, 3 and 6); 3) 8-aminoguanine (8-AG; 5 mg/kg/day in drinking water; beginning 2 weeks prior to CYP and continuing until sacrifice (day 8)). The dose of 8-AG is based on our preliminary and published experiments. […] The investigation conforms to the Guide for the Care and Use of Laboratory Animals published by the US National Institutes of Health (NIH Publication No. 85-23, revised 1996). In addition, all tissues (dorsal root ganglion, spinal cord, peripheral nerves and hindpaw epidermis) were removed from isoflurane anesthetized rats and the tissue was used for various experimental approaches as described below. At the end of tissue removal, animals were sacrificed by thoracotomy.
# Immunocytochemistry: A portion of tissues (a 3 mm biopsy from the rat hindpaw food pad or epidermis) is placed overnight in fixative (4% PFA) and cryoprotected (30% sucrose-phosphate buffered saline). Fluorescence immunocytochemistry was used to process cross-sections (20 μm) using antibodies (validated in rat tissue) against PGP 9.5 (Invitrogen PA5-29012, neuron specific protein; 1:500 dilution). […]
# PAC-CIPN rats = assay: Von Frey sensory testing in PAC-CIPN rats; assay type: in vivo, rat; conditions: hindpaw footpad, paclitaxel 2 mg/kg i.p., 8-AG 5 mg/kg/day in drinking water
# Protocol: (§1) Animals: This study employed female Harlan Sprague Dawley (HSD) rats (3-4 mo; Envigo, Indianapolis, IN) and were divided into the following groups: 1) Control, 2) Cyclophosphamide (CYP, 75 mg/kg i.p. in saline vehicle; administered on days 0, 3 and 6 until sacrifice on day 8); 4) Paclitaxel (2 mg/kg i.p., 2 mg/kg i.p. in saline from a stock solution of 50/50 CremophorEL/ethanol); administered on days 0, 2, 4 and 6 until sacrifice on day 8; 4) 8-aminoguanine (8-AG; 5 mg/kg/day in drinking water; beginning 2 weeks prior to either CYP or PAC and continuing until sacrifice (day 8)). The dose of 8-AG was based on the experiments described above. […] All tissues (spinal cord and hindpaw epidermis) were removed from isoflurane anesthetized rats and the tissue was used for various experimental approaches as described below. At the end of tissue removal, animals were sacrificed by thoracotomy.
# Von Frey sensory testing, Control, PAC and 8-AG-treated PAC rats were placed in an elevated chamber on a wire mesh floor and after acclimatization, calibrated von Frey microfilaments were applied to determine paw withdrawal threshold (PWT, in grams). Briefly, microfilaments (Stoelting Corp, USA) were applied with different forces perpendicularly to the plantar surface of both ipsilateral and contralateral hindpaw by increasing and decreasing stimulus intensity. […]
# CD68 = CD68 expression in PAC-CIPN rat spinal cord, Western immunoblotting; assay type: in vivo; conditions: 8-AG 5 mg/kg/day in drinking water
# Protocol: as §1, with “thoracotomy. […]” for “thoracotomy.”
smiles,measurement,setting,value
"Nc1nc2[nH]c(N)nc2c(=O)[nH]1 [8-AG, 8-Aminoguanine]",effect on CYP-induced gross edema,PGP 9.5,normalized
same,"effect on CYP-induced neural damage (ragged/damaged fine nerve terminals, PGP 9.5 distribution)",PGP 9.5,normalized
same,effect on PAC-induced increase in sensitivity to mechanical stimuli (paw withdrawal threshold),PAC-CIPN rats,restored to control values; also recorded: normalized
same,effect on PAC-induced increase in CD68 expression,CD68,significantly reduced
